The GI50 is the concentration at which growth is held to half of that of the control. One may read the pIC50 as the negative decadic logarithm of the IC50, by convention in mol/L.

The structures appear in SMILES notation. pIC50: −log10 of the molar value. Active and inactive are the calls of the source. No cut-off for these calls is given here.

The subject of data set [1] is SU-DHL-6. Briefly: Induction of apoptosis in human SU-DHL-6 cells assessed as viable cells at 0.1 uM incubated for 48 hrs by Annexin V-FITC/PI staining based flow cytometric analysis (reference value: 89.81 %). In kind it is functional. The following applies: read-out: Activity.
In data set [2] the test system is SU-DHL-6. Briefly: Irreversible inhibition of AKT phosphorylation in human SU-DHL-6 cells preincubated for 12 hrs followed by compound washout and measured after 24 hrs by Western blot analysis. It counts as cell-based. On the technique in general: Immunoblotting shows a protein as a band on a membrane.
The test system of data set [3] is SU-DHL-6. Kind of data set: Induction of apoptosis in human SU-DHL-6 cells assessed as necrotic cells at 0.01 uM incubated for 48 hrs by Annexin V-FITC/PI staining based flow cytometric analysis (reference value: 1.05 %). In kind it is functional. (A flow cytometer gives signals particle by particle.)
In data set [4] the test system is SU-DHL-6. Kind of data set: Induction of apoptosis in human SU-DHL-6 cells assessed as necrotic cells at 1 uM incubated for 48 hrs by Annexin V-FITC/PI staining based flow cytometric analysis (reference value: 1.05 %). It counts as functional.
Data set [5] has as its system SU-DHL-6. Kind of data set: Induction of cell cycle arrest in human SU-DHL-6 cells assessed as increase in G0/G1 phase cells incubated for 24 hrs by PI staining based flow cytometric analysis. The following applies: dose 1-100 nM. It counts as functional.
Data set [6] in a line: Growth inhibition of PI3Kdelta-overexpressing human SU-DHL-6 cells incubated for 72 hrs by MTT assay. In kind it is functional. On the technique in general: Tetrazolium dyes change colour on reduction, which living cells bring about.
The target of data set [7] is T1, Phosphatidylinositol 4,5-bisphosphate 3-kinase catalytic subunit delta isoform (Homo sapiens) (UniProt O00329).
T1 sequence (whole entry): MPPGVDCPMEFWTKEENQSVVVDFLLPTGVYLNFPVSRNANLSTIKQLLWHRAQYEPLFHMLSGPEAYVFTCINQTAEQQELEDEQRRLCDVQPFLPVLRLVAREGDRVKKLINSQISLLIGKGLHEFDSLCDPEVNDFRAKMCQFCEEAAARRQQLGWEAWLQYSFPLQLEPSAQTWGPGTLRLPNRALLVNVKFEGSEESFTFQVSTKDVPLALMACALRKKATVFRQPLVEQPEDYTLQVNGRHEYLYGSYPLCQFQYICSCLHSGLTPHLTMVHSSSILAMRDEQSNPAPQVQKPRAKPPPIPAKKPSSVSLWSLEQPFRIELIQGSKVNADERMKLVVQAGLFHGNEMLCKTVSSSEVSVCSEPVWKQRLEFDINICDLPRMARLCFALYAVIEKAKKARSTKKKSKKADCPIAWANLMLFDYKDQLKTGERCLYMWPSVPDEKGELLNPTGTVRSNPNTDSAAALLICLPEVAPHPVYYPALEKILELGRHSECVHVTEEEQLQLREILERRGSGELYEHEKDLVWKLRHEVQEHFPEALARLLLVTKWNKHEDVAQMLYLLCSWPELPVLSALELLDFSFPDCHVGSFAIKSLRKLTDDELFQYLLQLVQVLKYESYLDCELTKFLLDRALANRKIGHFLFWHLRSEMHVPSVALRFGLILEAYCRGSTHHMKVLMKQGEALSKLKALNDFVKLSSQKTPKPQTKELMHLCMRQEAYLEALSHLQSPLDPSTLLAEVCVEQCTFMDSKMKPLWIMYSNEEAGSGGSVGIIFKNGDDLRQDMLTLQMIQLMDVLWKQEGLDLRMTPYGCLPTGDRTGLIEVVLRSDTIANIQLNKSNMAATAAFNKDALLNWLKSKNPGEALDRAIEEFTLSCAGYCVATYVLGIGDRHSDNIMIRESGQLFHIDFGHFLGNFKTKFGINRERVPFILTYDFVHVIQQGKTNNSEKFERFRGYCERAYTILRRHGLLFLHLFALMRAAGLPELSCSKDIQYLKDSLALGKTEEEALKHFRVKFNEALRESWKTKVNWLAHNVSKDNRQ
Briefly: Covalent inhibition of PI3Kdelta (unknown origin) using PIP2:3PS as substrate assessed as second order rate constant (Kinact/Ki ratio) incubated upto 180 mins in presence of ATP by ADP-Glo reagent based assay.

In data set [8] the target is T1, Phosphatidylinositol 4,5-bisphosphate 3-kinase catalytic subunit delta isoform (Homo sapiens). Kind of data set: Potency index, ratio of idelalisib IC50 to test compound IC50 for inhibition of recombinant PI3Kdelta (unknown origin) using PIP2:3PS as substrate preincubated for 20 mins followed by ATP addition and measured after 1 hrs by ADP-Glo reagent based assay. The conditions noted are these: time 80.0 min.

Data set [9] relates to SU-DHL-6. Briefly: Induction of apoptosis in human SU-DHL-6 cells assessed as early apoptotic cells at 0.01 uM incubated for 48 hrs by Annexin V-FITC/PI staining based flow cytometric analysis (reference value: 5.02 %). It counts as functional.
The nature of data set [10]: Toxicity in male nude mouse xenografted with human SU-DHL-6 cells assessed as change in body weight at 5 to 30 mg/kg/day, po administered for 14 days. The conditions noted are these: in vivo, 336 h, dose 5-30 mg/kg/day, time 14 day. It counts as organism-based.
Data set [11] addresses Phosphatidylinositol 4,5-bisphosphate 3-kinase catalytic subunit beta isoform (Homo sapiens, UniProt P42338). Kind of data set: Inhibition of recombinant PI3Kbeta (unknown origin) using PIP2:3PS as substrate preincubated for 20 mins followed by ATP addition and measured after 1 hrs by ADP-Glo reagent based assay.
Data set [12] deals with T1, Phosphatidylinositol 4,5-bisphosphate 3-kinase catalytic subunit delta isoform (Homo sapiens). Kind of data set: Induction of thermal stabilization of PI3Kdelta in human SU-DHL-6 cells at 1 uM preincubated for 30 mins followed by incubated under 40 to 75 degreeC for 3 mins by CETSA. It counts as cell-based. The following applies: time 33.0 min.
In the next data set the test system is Mus musculus. Briefly: In vivo inhibition of PI3K signaling pathway in male nude mouse xenografted with human SU-DHL-6 cells assessed as reduction in AKT phosphorylation in tumor at 5 to 30 mg/kg/day, po administered for 14 days by Western blot analysis. It counts as functional, organism-based. The following applies: dose 5-30 mg/kg/day, time 14.0 day.
Data set [13] concerns SU-DHL-6. Briefly: Potency index, ratio of idelalisib GI50 to test compound GI50 for growth inhibition of PI3Kdelta-overexpressing human SU-DHL-6 cells incubated for 72 hrs by MTT assay. In kind it is functional.
In data set [14] the target is Phosphatidylinositol 4,5-bisphosphate 3-kinase catalytic subunit gamma isoform (Homo sapiens, UniProt P48736). Kind of data set: Inhibition of recombinant PI3Kgamma (unknown origin) using PIP2:3PS as substrate preincubated for 20 mins followed by ATP addition and measured after 1 hrs by ADP-Glo reagent based assay.
Chain of Phosphatidylinositol 4,5-bisphosphate 3-kinase catalytic subunit gamma isoform (P48736 whole entry, canonical isoform): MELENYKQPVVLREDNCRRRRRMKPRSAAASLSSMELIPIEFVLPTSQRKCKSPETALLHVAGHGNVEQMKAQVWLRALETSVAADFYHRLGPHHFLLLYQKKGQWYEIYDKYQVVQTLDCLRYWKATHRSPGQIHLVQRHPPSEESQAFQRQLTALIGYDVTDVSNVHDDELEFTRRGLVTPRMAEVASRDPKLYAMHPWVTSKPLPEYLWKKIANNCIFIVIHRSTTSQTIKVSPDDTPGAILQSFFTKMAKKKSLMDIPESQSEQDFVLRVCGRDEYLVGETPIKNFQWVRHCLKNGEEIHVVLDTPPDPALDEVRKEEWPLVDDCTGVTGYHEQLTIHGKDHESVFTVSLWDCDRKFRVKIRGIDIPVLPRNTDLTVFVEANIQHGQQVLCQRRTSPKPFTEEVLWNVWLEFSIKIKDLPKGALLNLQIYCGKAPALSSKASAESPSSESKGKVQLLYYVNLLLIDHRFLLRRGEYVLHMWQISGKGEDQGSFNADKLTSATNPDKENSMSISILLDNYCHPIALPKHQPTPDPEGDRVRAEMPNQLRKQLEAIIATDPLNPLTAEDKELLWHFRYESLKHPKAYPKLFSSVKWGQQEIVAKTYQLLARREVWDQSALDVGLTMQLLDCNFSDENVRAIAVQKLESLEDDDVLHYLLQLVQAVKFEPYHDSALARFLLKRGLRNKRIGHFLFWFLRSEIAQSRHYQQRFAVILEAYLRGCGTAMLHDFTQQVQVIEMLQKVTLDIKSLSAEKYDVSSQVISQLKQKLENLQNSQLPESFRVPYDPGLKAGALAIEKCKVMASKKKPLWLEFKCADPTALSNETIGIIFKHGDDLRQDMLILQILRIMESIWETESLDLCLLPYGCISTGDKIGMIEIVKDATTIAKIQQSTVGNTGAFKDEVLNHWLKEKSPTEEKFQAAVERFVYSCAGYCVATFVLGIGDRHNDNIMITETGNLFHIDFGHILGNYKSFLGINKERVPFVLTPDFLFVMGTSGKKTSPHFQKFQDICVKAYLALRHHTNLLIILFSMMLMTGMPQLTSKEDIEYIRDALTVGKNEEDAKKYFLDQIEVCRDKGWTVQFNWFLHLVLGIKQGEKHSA
Data set [15] concerns SU-DHL-6. Kind of data set: Induction of apoptosis in human SU-DHL-6 cells assessed as late apoptotic cells at 0.01 uM incubated for 48 hrs by Annexin V-FITC/PI staining based flow cytometric analysis (reference value: 4.12 %). It counts as functional.
Data set [16] relates to SU-DHL-6. Kind of data set: Induction of apoptosis in human SU-DHL-6 cells assessed as late apoptotic cells at 1 uM incubated for 48 hrs by Annexin V-FITC/PI staining based flow cytometric analysis (reference value: 4.12 %). In kind it is functional.
The target of data set [17] is T1, Phosphatidylinositol 4,5-bisphosphate 3-kinase catalytic subunit delta isoform (Homo sapiens). Kind of data set: Covalent inhibition of PI3Kdelta (unknown origin) using PIP2:3PS as substrate assessed as rate constant for irreversible inactivation (Kinact) incubated upto 180 mins in presence of ATP by ADP-Glo reagent based assay.
Data set [18] concerns the target T2, Phosphatidylinositol 4,5-bisphosphate 3-kinase catalytic subunit delta isoform (Homo sapiens, UniProt O00329).
T2 sequence (O00329 whole entry): T1 sequence (whole entry)
Briefly: Inhibition of recombinant PI3Kdelta (unknown origin) using PIP2:3PS as substrate preincubated for 20 mins followed by ATP addition and measured after 1 hrs by ADP-Glo reagent based assay.

In data set [19] the test system is SU-DHL-6. Briefly: Induction of apoptosis in human SU-DHL-6 cells assessed as viable cells at 0.01 uM incubated for 48 hrs by Annexin V-FITC/PI staining based flow cytometric analysis (reference value: 89.81 %). In kind it is functional. The conditions noted are these: read-out: Activity.

Chain of Phosphatidylinositol 4,5-bisphosphate 3-kinase catalytic subunit beta isoform (P42338 whole entry, canonical isoform): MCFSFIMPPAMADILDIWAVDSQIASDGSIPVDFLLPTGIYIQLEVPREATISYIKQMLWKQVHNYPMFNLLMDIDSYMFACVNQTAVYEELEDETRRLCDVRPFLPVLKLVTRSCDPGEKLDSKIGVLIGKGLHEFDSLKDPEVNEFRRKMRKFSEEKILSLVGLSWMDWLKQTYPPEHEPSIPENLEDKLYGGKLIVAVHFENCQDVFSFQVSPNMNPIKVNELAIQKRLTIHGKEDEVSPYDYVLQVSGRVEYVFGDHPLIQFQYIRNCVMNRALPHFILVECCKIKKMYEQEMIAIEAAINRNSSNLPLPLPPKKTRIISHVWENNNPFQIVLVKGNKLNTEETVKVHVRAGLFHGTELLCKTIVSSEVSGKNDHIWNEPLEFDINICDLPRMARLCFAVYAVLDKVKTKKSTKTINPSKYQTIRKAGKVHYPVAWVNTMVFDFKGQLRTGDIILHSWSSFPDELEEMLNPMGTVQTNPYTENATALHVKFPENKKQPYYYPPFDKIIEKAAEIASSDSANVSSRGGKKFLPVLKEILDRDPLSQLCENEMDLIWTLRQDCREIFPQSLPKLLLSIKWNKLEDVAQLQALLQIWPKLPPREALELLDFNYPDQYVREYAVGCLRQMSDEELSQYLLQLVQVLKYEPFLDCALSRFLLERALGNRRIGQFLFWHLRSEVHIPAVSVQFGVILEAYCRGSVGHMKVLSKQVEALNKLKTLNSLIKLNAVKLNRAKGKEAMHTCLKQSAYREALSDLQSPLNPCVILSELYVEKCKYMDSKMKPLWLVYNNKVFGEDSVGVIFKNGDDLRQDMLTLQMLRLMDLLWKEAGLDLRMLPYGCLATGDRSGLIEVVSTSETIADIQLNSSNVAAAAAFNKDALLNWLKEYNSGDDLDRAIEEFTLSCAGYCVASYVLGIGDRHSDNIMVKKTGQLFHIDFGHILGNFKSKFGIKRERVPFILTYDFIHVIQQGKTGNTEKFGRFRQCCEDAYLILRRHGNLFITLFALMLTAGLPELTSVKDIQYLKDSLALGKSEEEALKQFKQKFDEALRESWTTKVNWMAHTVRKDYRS

With `COc1ncc(-c2ccc3ncnc(N[C@H]4CCN(C(=O)C5CCOCC5)C4)c3n2)cc1C(=O)Oc1ccccc1`, the viability at 0.1 µM in the data set on SU-DHL-6 [1] worked out at 65.3%. For the same compound, the inhibition result with SU-DHL-6 [2] and in the data set on Mus musculus was “Active” throughout. The Activity was 0.52% in the data set on SU-DHL-6 [3]; 1.57% with SU-DHL-6 [4]; “Dose-Dependent Effect” with SU-DHL-6 [5]; 10.3% in the data set with SU-DHL-6 [9]; “Non-Toxic” in [10]; 4.19% with SU-DHL-6 [15]. For the same compound, in the data set with SU-DHL-6 [16], the Activity was 20.35%. The same compound returned a GI50 in data set [6] of 2 nM. In addition, the Ratio in [7] is 1.76 10^5/M/s. Further, in data set [8], the Ratio IC50 was 10. Also, the figures for the pIC50 in data set [11], in data set [14] and in [18] were 6.69, 7.03 and 9.57, respectively. The result in data set [12] was Active. Also, the RatioGI50 with SU-DHL-6 [13] is listed as about 10. Also, in data set [17], the Kinact was determined as 0.02 min⁻¹. Also, the viability at 0.01 µM with SU-DHL-6 [19] is 85%.
